The text below walks through data of ChEMBL document CHEMBL1131715 (Bioorg Med Chem Lett, 1999).

The nature of this experiment: Inhibitory activity against zinc-dependent Glutamate Carboxypeptidase G.

What is called Ki is the equilibrium dissociation constant of an inhibitor or competing ligand from its target. A low value points to a stronger hold on the target. In the case of `O=C(O)CC[C@H](NP(O)(=S)c1ccccc1)C(=O)O` (some centres not stated), the Ki came to 3240 nM.

Turning to `CCCCP(O)(=S)N[C@@H](CCC(=O)O)C(=O)O` (some centres not stated), the Ki came out at 264 nM.
